Values quoted from earlier work, collected in US20240415845A1, “Compositions of Iboga Alkaloids and Methods of Treatment” (priority 2022, published 2024).

Settings: in vivo; cited from earlier work

For `CC[C@H]1CC2C[C@H]3c4[nH]c5ccc(O)cc5c4CCN(C2)C13` [noribogaine, Noribogaine], the half-life is listed as 28 to 49 h.
